“Also recorded” adds a separate entry of the source.
What was measured:
[1] = human, in vivo
Description: The study consisted of eight visits spread over ˜28 weeks, which included an initial screening/monitoring period (˜2 weeks), followed by a treatment period (12 weeks) and a post-treatment observational period (12 weeks). Safety and adverse events were assessed at each clinical visit, including vital signs. At each visit, researchers reminded participants to take their medication according to instructions. Safety was also assessed through blood screenings at baseline, while blood pressure, pulse and temperature were assessed at all study visits.
Adverse events (AEs) that occurred during treatment and those that occurred after treatment were differentiated. However, to account for potential late onset AEs or those related to withdrawal of medication, AEs occurring during a certain window after treatment were considered to be “during treatment”.
Analyses were done using MATLAB 2016a, JMP Pro version 13.2 (SAS Institute, Cary, N.C.) and SPSS version 25. Safety analyses included all participants who received at least one dose of the study drug.

[2] = tested on: subacute back pain (SBP) participants; experiment: Double-blind randomized trial of LDP+NPX vs PLC+NPX in subacute back pain; phone NRS pain ratings; type: in vivo, human; settings: for One-week average pain ratings, pain intensity (0-10), Mean ± SEM: phone NRS 0-10 scale
Excerpt: The main outcome measure was a Numerical Rating Scale (NRS),^19 where “0” corresponds to no pain and “10” indicates worst possible pain. On this scale, participants provided ratings of their current pain up to three times a day during study participation (6 months), via a smartphone app (phone NRS).
Treatment-related percentage residual pain was computed relative to the average phone-NRS score from the week preceding start of treatment, for every subject and every day, and then averaged across subjects for each treatment type (FIG. 2A). Over the treatment period, a rapid decrease in back pain intensity was observed that, in the NoTx group, stabilizes (with large fluctuations) at around 80% residual pain, while in the LDP+NPX and PLC+NPX groups residual pain continues to decrease for the duration of treatment, reaching a residual pain of about 50%. […] Remarkably in all three groups, the observed pain relief persisted after cessation of treatment, over the next 12 weeks.
This 24-week double-blind parallel randomized controlled trial was conducted at Northwestern University (Chicago, USA). Protocol and informed consent form were approved by Northwestern University IRB as well as NIDCR/NIH. All enrolled participants provided written informed consent. Safety and trial oversight were monitored by an independent data safety monitoring board and a clinical research organization, with NIDCR/NIH oversight. The trial was registered on ClinicalTrials.gov, under registry NCT01951105.
• Eligible subjects first underwent a brain imaging session and, using predefined brain-derived parameters, were stratified into high and low-risk subgroups for transitioning to CBP. Those in the low-risk category, who had 60% or higher probability of recovering naturally, entered the NoTx arm; the rest, who had less than 60% probability of recovering naturally, were randomized between a placebo-control arm, and a pharmacological treatment arm. A flexible dose escalation procedure was used and both researchers and participants were blinded to treatment type. Study medications were tapered off at week 12, and participants continued to be evaluated for another 12 weeks. At final visit, participants underwent a second brain scan.
The design was setup to evaluate safety, efficacy and gender dependence of the combination of carbidopa/levodopa (12.5 mg/50 mg-25 mg/100 mg-50 mg/200 mg, dose escalation based on response) plus naproxen 250 mg (LDP+NPX) administered three times a day, compared to placebo plus naproxen 250 mg (PLC+NPX) administered three times a day.
Treatment with carbidopa/levodopa was titrated up to 12.5 mg/50 mg three times/day over one week and then continued at that level for 4 weeks. If by the end of the initial 4-week period the participant “responded” [had >20% decrease in pain intensity from the average of all phone NRS ratings collected at baseline (between visit 1 and visit 3) to the average of all phone NRS ratings during those 5 weeks], the participant was maintained on that dose for the duration of the treatment period (12 weeks total). If there was no response, the carbidopa/levodopa dose was increased to 25 mg/100 mg three times/day for the following 4 weeks, at which time the pain status was re-evaluated (based on the average of all phone NRS rating during those four weeks, against baseline average). Again, if a response occurred, that dose was maintained in a blinded manner for the following 4 weeks of treatment; if not, further dose-titration carbidopa/levodopa occurred to 50 mg/200 mg three times/day for the final 4 weeks. When a participant experienced an adverse event at higher doses, the participant was given the next lower dose that s/he was able to tolerate and then maintained on that dose for the remainder of the 12-week dosing period. Naproxen dose (250 mg three times/day) remained constant for all participants throughout the study, except it was not given during the tapering down at the end of the study. […]

Substance	Safety / tolerability in words [1]	Response rates across response criteria (80%-20% residual pain), in words ([2]; 3 and 6 months, by gender)	One-week average pain ratings, pain intensity (0-10), Mean ± SEM ([2]; 3 months (end of treatment))	One-week average pain ratings, pain intensity (0-10), Mean ± SEM ([2]; 6 months (3 months after end of treatment))	One-week average pain ratings, pain intensity (0-10), Mean ± SEM ([2]; BL (baseline))	Efficacy by gender (residual pain, in words) ([2]; females vs males, residual pain at six months)	Males showing at least 80% improvement ([2]; males) [%]	Residual pain reached over duration of treatment ([2]; relative to average phone-NRS of week preceding treatment, 12-week treatment)
levodopa/carbidopa [LDP]	No adverse effects specifically linked to LDP use were observed							
placebo+naproxen [PLC+NPX]		less effective yielding similar response rates in males and females; also recorded: less effective and similar among males and females	2.4 ± 0.4	2.2 ± 0.4	5.1 ± 0.3	more effective than LDP+NPX in males	38	about 50%
